Source: PubChem BioAssay AID270 (DTP/NCI, 2004)
“And” between values parts separate entries of the source, which are not always exact repeats. Identical values can stand only once. Records with an inconclusive call do not appear.

Tested on: BDF1 mice, s.c. Lewis lung carcinoma, T/C %
Experiment: NCI In Vivo Anticancer Drug Screen. Data for tumor model Lewis Lung Carcinoma (subcutaneous) in B6D2F1 (BDF1) mice
Method: The antitumor activity of compounds was measured in mice bearing transplantable tumors. Survival or tumor size were measured and the results are expressed as the measurement made in the treated group (T) divided by the measurement made in the vehicle treated control group (C). The tumor model used in this assay is Lewis Lung Carcinoma (subcutaneous) in B6D2F1 (BDF1) mice

SMILES: O=NN(CCCl)C(=O)NCCCl
- T/C (endpoint: mean tumor weight, dose: 1.57 mg/kg/injection, schedule: Q01DX011 (ip), vehicle: saline, higher = larger tumour): 78 % of control
- T/C (endpoint: mean tumor weight, dose: 3.13 mg/kg/injection, schedule: Q01DX011 (ip), vehicle: saline, higher = larger tumour): 56 % of control
- T/C (endpoint: mean tumor weight, dose: 4.0 mg/kg/injection, schedule: Q01DX011 (ip), vehicle: other, higher = larger tumour): 41 % of control
- T/C (endpoint: mean tumor weight, dose: 6.25 mg/kg/injection, schedule: Q01DX011 (ip), vehicle: saline, higher = larger tumour): 4 % of control and 14 % of control
- T/C (endpoint: mean tumor weight, dose: 12.5 mg/kg/injection, schedule: Q01DX011 (ip), vehicle: saline, higher = larger tumour): 3 % of control
- T/C (endpoint: median survival time, dose: 0.5 mg/kg/injection, schedule: Q08HX024 (ip), vehicle: Klucel (hydroxypropylcellulose) (HPC), higher = longer survival): 90 % of control
- T/C (endpoint: median survival time, dose: 1.0 mg/kg/injection, schedule: Q08HX024 (ip), vehicle: Klucel (hydroxypropylcellulose) (HPC), higher = longer survival): 91 % of control
- T/C (endpoint: median survival time, dose: 5.0 mg/kg/injection, schedule: Q01DX001 (ip), vehicle: Klucel (hydroxypropylcellulose) (HPC), higher = longer survival): 108 % of control
- T/C (endpoint: median survival time, dose: 5.0 mg/kg/injection, schedule: Q01DX001 (ip), vehicle: saline + alcohol, higher = longer survival): 100 % of control and 104 % of control
- T/C (endpoint: median survival time, dose: 5.0 mg/kg/injection, schedule: Q01DX001 (ip), vehicle: saline with Tween-80, higher = longer survival): 113 % of control
- T/C (endpoint: median survival time, dose: 6.7 mg/kg/injection, schedule: Q01DX005 (ip), vehicle: saline + alcohol, higher = longer survival): 113 % of control
- T/C (endpoint: median survival time, dose: 10.0 mg/kg/injection, schedule: Q01DX001 (ip), vehicle: Klucel (hydroxypropylcellulose) (HPC), higher = longer survival): 120 % of control
- T/C (endpoint: median survival time, dose: 10.0 mg/kg/injection, schedule: Q01DX001 (ip), vehicle: saline + alcohol, higher = longer survival): 96 % of control and 116 % of control
- T/C (endpoint: median survival time, dose: 10.0 mg/kg/injection, schedule: Q01DX001 (ip), vehicle: saline with Tween-80, higher = longer survival): 99 % of control and 102 % of control
- T/C (endpoint: median survival time, dose: 13.0 mg/kg/injection, schedule: Q01DX001 (ip), vehicle: saline + alcohol, higher = longer survival): 100 % of control
- T/C (endpoint: median survival time, dose: 13.5 mg/kg/injection, schedule: Q01DX001 (ip), vehicle: Klucel (hydroxypropylcellulose) (HPC), higher = longer survival): 160 % of control
- T/C (endpoint: median survival time, dose: 15.0 mg/kg/injection, schedule: Q01DX005 (ip), vehicle: saline + alcohol, higher = longer survival): 71 % of control and 85 % of control
- T/C (endpoint: median survival time, dose: 20.0 mg/kg/injection, schedule: Q01DX001 (ip), vehicle: Klucel (hydroxypropylcellulose) (HPC), higher = longer survival): 117 % of control
- T/C (endpoint: median survival time, dose: 20.0 mg/kg/injection, schedule: Q01DX001 (ip), vehicle: saline + alcohol, higher = longer survival): 104 % of control and 121 % of control
- T/C (endpoint: median survival time, dose: 20.0 mg/kg/injection, schedule: Q01DX001 (ip), vehicle: saline with Tween-80, higher = longer survival): 111 % of control and 119 % of control
- T/C (endpoint: median survival time, dose: 26.0 mg/kg/injection, schedule: Q01DX001 (ip), vehicle: saline + alcohol, higher = longer survival): 117 % of control
- T/C (endpoint: median survival time, dose: 27.0 mg/kg/injection, schedule: Q01DX001 (ip), vehicle: Klucel (hydroxypropylcellulose) (HPC), higher = longer survival): 105 % of control
- T/C (endpoint: median survival time, dose: 30.0 mg/kg/injection, schedule: Q01DX001 (ip), vehicle: saline + alcohol, higher = longer survival): 163 % of control
- T/C (endpoint: median survival time, dose: 39.0 mg/kg/injection, schedule: Q01DX001 (ip), vehicle: saline + alcohol, higher = longer survival): 100 % of control
- T/C (endpoint: median survival time, dose: 40.0 mg/kg/injection, schedule: Q01DX001 (ip), vehicle: Klucel (hydroxypropylcellulose) (HPC), higher = longer survival): 156 % of control
- T/C (endpoint: median survival time, dose: 40.0 mg/kg/injection, schedule: Q01DX001 (ip), vehicle: saline with Tween-80, higher = longer survival): 121 % of control
- T/C (endpoint: median survival time, dose: 80.0 mg/kg/injection, schedule: Q01DX001 (ip), vehicle: Klucel (hydroxypropylcellulose) (HPC), higher = longer survival): 217 % of control
- T/C (endpoint: median survival time, dose: 80.0 mg/kg/injection, schedule: Q01DX001 (ip), vehicle: saline + alcohol, higher = longer survival): 95 % of control
- T/C (endpoint: median tumor weight (est.), dose: 14.0 mg/kg/injection, schedule: Q01DX001 (ip), vehicle: saline + alcohol, higher = larger tumour): 70 % of control
- T/C (endpoint: median tumor weight (est.), dose: 27.0 mg/kg/injection, schedule: Q01DX001 (ip), vehicle: saline + alcohol, higher = larger tumour): 65 % of control
- T/C (endpoint: median tumor weight (est.), dose: 41.0 mg/kg/injection, schedule: Q01DX001 (ip), vehicle: saline + alcohol, higher = larger tumour): 34 % of control
